These results are taken from patent US8895599B2, “Lipoprotein lipase-activating compositions comprising benzene derivates” (Otsuka Pharmaceutical Factory, Inc., priority 2008, dated 2014).

For one data set, the system named is human LPL mRNA. The data set is described as follows: Test for increase in LPL mRNA expression (luciferase assay, HTB-92/p387/p383 cell line). It counts as cell-based. The note with it: 120 h, HTB-92/p387/p383 cells, 5 days; for maximal fold induction: Max. Ind. Value=Lt/Lc, maximum luciferase activity over control; for EC50: concentration that increases LPL mRNA expression over the control by 50%. From the text: Pharmacological Test 1 Test for Increase in LPL mRNA Expression
A luciferase assay was employed to simply and quickly detect an increase in human LPL mRNA. The principle of the assay is as follows:
Luciferase emits light when reacted with luciferine (substrate). The expression of LPL mRNA is controlled by 5′-UTR and 3′-UTR (promoter regions) of the LPL gene. By introducing the promoter regions of the LPL gene into a commercially available plasmid (for example, that produced by Clonetics Corp.) to produce a plasmid (reporter plasmid) that stably expresses luciferase in human cells, such a plasmid expresses luciferase only under conditions in which LPL mRNA can increase. Therefore, when the substrate is introduced to the expression system and the amount of luciferase expression (luciferase activity) is quantified as the extent of chemiluminescence, the amount of LPL mRNA expression can be estimated.
The test herein was performed as follows: Using a plasmid for the luciferase assay manufactured by Clontech, wherein human LPL 5′-UTR (Enerback, S., et al., Mol. Cell. Biol. 12 (10) (1992): 4622-4633) and 3′-UTR (Wion, K. L., et al., Science 235 (1987): 4796, 1638-1641) had been inserted, human-derived liposarcoma cell line SW872 (ATCC Accession No. HTB-92) was transformed to prepare an HTB-92/p387/p383 cell line, which stably expresses luciferase.
This HTB-92/p387/p383 cell line was introduced into a 225 cm^2 culture flask furnished with a culture medium and cultured at 37° C. in the absence of CO2 until reaching confluence. Leibovitz's L-15 culture medium (containing 10% FBS, 1% GlutaMaxII, 10 μg/ml streptomycin, 1 μg/ml puromycin, 250 μg/ml hygromycin B) was used as the culture medium. After reaching confluence, the cells were collected, plated on 384-well plates to have 20000 cells/well, and cultured with 50 μl/well of the culture medium under the same conditions as above (37° C., absence of CO2). After 3 days of culturing, the culture medium was replaced by 50 μl/well phenol-red-free DMEM (containing 10% FBS, 1% GlutaMax, 10 U/ml penicillin, 10 μg/ml streptomycin, 1 μg/ml puromycin, 250 μg/ml hygromycin, 1 μM dexamethasone, 0.5 μM IBMX; differentiation medium), and the cells were cultured for 5 more days at 37° C. in the presence of CO2 to differentiate.
Furthermore, the culture medium was replaced by a 50 μl/well medium containing a compound of the invention (compound prepared in an Example) as a test substance wherein the compound had been conditioned with DMSO to a specific concentration selected from 10^−4 M to 3×10^−10M. The cells were cultured for 5 days at 37° C. in the presence of CO2.
After 5 days of culturing, a luciferase substrate solution (manufactured by Promega Corporation) was introduced to each well in an amount of 30 μl/well. The cells were left to stand 10 minutes at room temperature, and luciferase activities were measured by a luminometer (a microplate scintilltion counter; The Wallac MicroBeta Trilux, manufactured by Perkin Elmer, Inc.).
Cells that had been cultured and differentiated in a differentiation medium prepared by adding 0.1% DMSO to the above-mentioned DMEM medium (differentiation medium) not containing phenol red were used as a control (i.e., cultured and differentiated for 5 days and then stimulated for 5 days). The luciferase activity of these control cells were measured as above. The EC50 value (the concentration of test substance that can increase the amount of LPL mRNA expression over the control by 50%, unit: M) was calculated based on the straight line obtained by plotting the results of the tests performed using the test substances at varying concentrations. The maximum induction (Max. Ind. values) was calculated according to the following equation: Max. Ind. Value=Lt/Lc wherein Lt represents the maximum luciferase activity occurred in response to test substance stimulation; and Lc represents the value indicating the luciferase activity of the control.

In general, maximal fold induction refers to the ratio of treated to control signal. For `COc1cc(-c2cnc3ccccn23)ccc1O[C@H](C)c1ccccc1` [Example 132], in the data set with human LPL mRNA, the maximal fold induction stood at 1.7 and the EC50 came out at 6.2 µM.

`COc1cc(-c2cnc3ccccn23)ccc1OCc1ccc(Cl)c(Cl)c1` [Example 117]: in the data set with human LPL mRNA, the maximal fold induction is 2.2 and the EC50 was 3.3 µM.

By melting point is commonly meant the temperature, or range, at which the solid turns liquid. `COc1cc(-c2cnc3ccccn23)ccc1OC(C)c1ccccc1` (stereo not drawn) [Example 135] yielded a melting point of 113 to 113.5 °C. In the data set on human LPL mRNA, this molecule registered a maximal fold induction of 1.8 and an EC50 of 5.2 µM.

For `COc1cc(-c2cnc3ccccn23)ccc1OCc1ccc(Cl)cc1` [Example 109], in the data set with human LPL mRNA, the maximal fold induction was found to be 1.5 and the EC50 was 3 µM.

In turn, `COc1cc(-c2cn3ccccc3n2)ccc1Oc1ccc(Cl)cc1` [Example 114] had a melting point of 148 to 149 °C. Also, in the data set with human LPL mRNA, the maximal fold induction worked out at 1.5 and the EC50 worked out at 7.2 µM.

`COc1cc(-c2cn3ccccc3n2)ccc1OCc1ccccc1F` [Example 4] had a melting point of 115 to 117 °C. In the data set on human LPL mRNA, this molecule returned a maximal fold induction of 1.7 and an EC50 of 2 µM.

The molecule `COc1cc(-c2cn3ccccc3n2)ccc1Oc1ccccc1` [Example 138] displayed a melting point of 95 to 97 °C. In the data set with human LPL mRNA, this molecule returned a maximal fold induction of 2 and an EC50 of 2 µM.

As to `COC(=O)c1ccc2nc(-c3ccc(OCc4ccc(Cl)cc4)c(OC)c3)cn2c1` [Example 46], the melting point was in the range of 182 to 183 °C.

Take `COc1cc(-c2cn3cc(C)sc3n2)ccc1OCc1ccc(Cl)cc1` [Example 43]: the melting point fell in the range of 156 to 158 °C.

In turn, `COc1cc(-c2cn3ccccc3n2)ccc1OCc1ccc([N+](=O)[O-])cc1` [Example 38] returned a melting point of 197 to 200 °C.

With `COc1cc(-c2cn3cc(C(F)(F)F)ccc3n2)ccc1OCc1ccccc1` [Example 17], the melting point was in the range of 172 to 173 °C.

For the molecule `COc1cc(-c2cn3ccsc3n2)ccc1OCc1ccc([N+](=O)[O-])cc1` [Example 49], the melting point lay in the range of 189 to 191 °C.

In turn, `COc1cc(-c2cn3ccccc3n2)ccc1O[C@@H](C)c1ccccc1` [Example 134] showed a melting point of 149 to 150 °C. In the data set with human LPL mRNA, this molecule had a maximal fold induction of 1.7 and an EC50 of 6.4 µM.

Regarding `COc1cc(-c2cn3cc(C)cc(Br)c3n2)ccc1OCc1ccc(C#N)cc1` [Example 65], the melting point lay within 175 to 176 °C.

For `COc1cc(-c2cn3cccnc3n2)ccc1OCc1ccccc1` [Example 28, 2-(4-benzyloxy-3-methoxyphenyl)imidazo[1,2-a]pyrimidine], the melting point lay within 168 to 169 °C.

Turning to `COc1cc(-c2nc3ccccc3[nH]2)ccc1OCc1ccccc1` [Example 76, 2-(4-benzyloxy-3-methoxyphenyl)benzimidazole], the melting point was 219 to 221 °C.

Molecule `COc1cc(-c2nc3ccccc3s2)ccc1OCc1ccccc1` [Example 78, 2-(4-benzyloxy-3-methoxyphenyl)benzothiazole] returned a melting point of 108 to 109 °C.

In the case of `COc1cc(-c2cn3cc(Br)c(C)c(C)c3n2)ccc1OCc1ccc(C#N)cc1` [Example 101], the melting point was in the range of 180 to 181 °C.

Consider `COc1cc(-c2cccc3nccn23)ccc1OCc1ccccc1` [Example 116], for which the melting point lay in the range of 164 to 166 °C.

`O=C(O)c1cc(-c2cn3ccccc3n2)ccc1OCc1ccccc1` [Example 40] showed a melting point of 239 to 240 °C.

With `COc1cc(-c2cnc3ccccn23)ccc1OCc1ccccc1` [Example 12, 3-(4-benzyloxy-3-methoxyphenyl)imidazo[1,2-a]pyridine], the melting point lay in the range of 129 to 131 °C.

As to `COc1cc(-c2cn3ccccc3n2)ccc1OCc1ccc(Cl)cc1F` [Example 91], the melting point was in the range of 119 to 120 °C.

Molecule `COc1cc(-c2cn3ccccc3n2)ccc1OCc1ccc(Br)cc1` [Example 31] showed a melting point of 136 to 137 °C.

In the case of `CCO[PH](=O)OCc1ccc(C(=O)Nc2ccc(Br)cc2C#N)cc1` (stereo not drawn) [ethyl 4-[(4-bromo-2-cyanophenyl)carbamoyl]benzyl phosphonate, reference compound], the maximal fold induction in the data set with human LPL mRNA is roughly 1.2.

In turn, `COc1cc(-c2cn3cc(C)ccc3n2)ccc1OCc1ccccc1` [Example 15] displayed a melting point of 135 to 136 °C.

`COc1cc(-c2cn3cccc(OCc4ccccc4)c3n2)ccc1OCc1ccccc1` [Example 55] yielded a melting point of 140 to 141 °C.

Regarding `COc1cc(-c2cn3cccc(O)c3n2)ccc1OCc1ccccc1` [Example 54], the melting point fell in the range of 187 to 189 °C.

The molecule `COc1cc(-c2cn3cccc(OC)c3n2)ccc1OCc1ccc(Cl)cc1` [Example 89] came in with a melting point of 132 to 134 °C.

In the case of `COc1cc(-c2cn3ccccc3n2)ccc1OCc1cccc(F)c1` [Example 5], the melting point was 117 to 118 °C. In the data set on human LPL mRNA, the maximal fold induction was determined as 1.6 and the EC50 came out at 3.6 µM.

The molecule `Cc1cc(-c2cn3ccccc3n2)ccc1OCc1ccccc1` [Example 39] displayed a melting point of 123 to 124 °C.

`COc1cc(-c2cn3cccc(OCc4ccccc4)c3n2)ccc1OCc1ccc(C#N)cc1` [Example 86]: the melting point fell in the range of 169 to 170 °C.

The molecule `COc1cc(-c2nc3ccccn3c2Cl)ccc1OCc1ccccc1` [Example 2] registered a melting point of 103 to 104 °C.

As for `COc1cc(-c2cn3ccccc3n2)cc(OC)c1OCc1ccccc1` [Example 41], the melting point was 154 to 155 °C.

Take `c1ccc(-c2cc3cc(-c4cn5ccccc5n4)ccc3o2)cc1` [Example 103]: the melting point fell in the range of 239.5 to 241 °C. For the same molecule, in the data set with human LPL mRNA, the maximal fold induction was found to be 1.9 and the EC50 came to 7.4 µM.
